Source: US8097581B2, “Anti-wrinkle cosmetic composition” (Grant Industries Inc., priority 2007, dated 2012)

What was measured:
[1] = test system: human dermal fibroblast cultures; assay: Stimulation of mitochondrial metabolic activity (MTT method); format: cell-based; details: 10 ng/ml; positive control
Description: In order to maintain youthful appearance, skin needs to constantly replace and regenerate its damaged components. This is predominantly the role of dermal fibroblasts. How well this job is done depends on the metabolic vigor of these cells as damaged or dormant fibroblasts will not be able to actively produce the replacement parts for the skin. This is why the stimulation of their metabolic activity is viewed as beneficial to the skin, not unlike the stimulation of metabolic activity is beneficial to the muscle. We tested the effect of RD1071 on the metabolic activity of mitochondria of human dermal fibroblast cultures using MTT method (Berridge et al., 1993). Mitochondria are cellular powerhouses producing energy (ATP) for the entire cell. […] Thus, example 1 (RD1071) increases cellular metabolism in a dose-dependant manner. The positive control in this experiment is use of basic fibroblast growth factor, bFGF at 10 ng/ml concentration.

fibroblast cultures = assay: Total protein production stimulation (method of Skehan et al.); format: cell-based, human; details: 10 ng/ml; positive control
Protocol: The stimulation of metabolic activity by RD1071 also translated into an increase of total protein content in fibroblast cultures. […] For example, UV radiation and aging are associated with the increased proteolytic activity in the skin. The stimulation of total protein production could counterbalance the loss of proteins caused by this increased proteolytic activity. Total protein was measured using the method of Skehan et al. (1990). […] The basic fibroblast growth factor, bFGF, was again used as a positive control.

## bFGF: basic fibroblast growth factor, positive control at 10 ng/ml
[1]
  Mitochondrial Metabolism % Control: 174 % Control
Fibroblast cultures
  Protein Stimulation % Control: 118 % Control
